Measured values as given in patent US7015221B2, “2,4-disubstituted triazine derivatives” (Janssen Pharmaceutica, N.V., priority 1998, dated 2006).

Assays:
[1] = Cytotoxicity in mock-infected MT-4 cells (MTT); type: cell-based; details: human, concentration reducing absorbance of mock-infected MT-4 control by 50%

| melting point [°C] | SMILES | CC50 [1] [µM] |
| --- | --- | --- |
| – | Cc1cc(C)c(Sc2ncnc(Nc3ccc(C#N)cc3)n2)c(C)c1 [Compound 4, 4-[[4-[(2,4,6-trimethylphenyl)thio]-1,3,5-triazin-2-yl]amino]benzonitrile] | > 100 |
| 245 to 247 | CC(C)c1cc(Br)c(Nc2ncnc(Nc3ccc(C#N)cc3)n2)c(Br)c1 [Compound 8, 4-[[4-[[2,6-dibromo-4-(1-methylethyl)phenyl]amino]-1,3,5-triazin-2-yl]amino]benzonitrile] | – |
| – | Cc1cc(C)c(Oc2ncnc(Nc3ccc(C#N)cc3)n2)c(C)c1 [Compound 2, 4-[[4-(2,4,6-trimethylphenoxy)-1,3,5-triazin-2-yl]amino]benzonitrile] | > 100 |
